Counter-ions that a name gives are not always drawn.
system: XBP1s-luc 293 LUC; assay: cellular PD assay, XBP1s-LUC reporter (Example 903); type: cell-based; details: Table 1; read-out: XBP1s-luc 293 LUC (IC50)
How it was run: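 Cellular IRE1α pathway activity was quantified from the luciferase signal of an XBP1-Luc reporter, where the luciferase fusion is in frame and expressed only from the spliced XBP1 transcript.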

SMILES	IC50 [nM]
Cc1ccc2c(NC(=O)C3CC(F)(F)C3)cccc2c1Oc1ncccc1-c1ccnc(N[C@H]2CCCNC2)n1 [Example 219, (S)-3,3-Difluoro-N-(6-methyl-5-(3-(2-(piperidin-3-ylamino)pyrimidin-4-yl)pyridin-2-yloxy)naphthalen-1-yl)cyclobutanecarboxamide]	119
Cc1ccc2c(NC(=O)CC(C)C)cccc2c1Oc1ncccc1-c1ccnc(N[C@H]2CCCNC2)n1 [Example 188, (S)-3-Methyl-N-(6-methyl-5-((3-(2-(piperidin-3-ylamino)pyrimidin-4-yl)pyridin-2-yl)oxy)naphthalen-1-yl)butanamide]	141
Cc1ccc2c(NS(=O)(=O)Cc3ccc(F)cc3F)c(F)ccc2c1Oc1ncccc1-c1ccnc(N[C@H]2CCCNC2)n1 [Example 186, (S)-1-(2,4-Difluorophenyl)-N-(2-fluoro-6-methyl-5-((3-(2-(piperidin-3-ylamino)pyrimidin-4-yl)pyridin-2-yl)oxy)naphthalen-1-yl)methanesulfonamide]	4.89
Cc1ccc2c(NC(=O)CC#N)cccc2c1Oc1ncccc1-c1ccnc(N[C@H]2CCCNC2)n1 [Example 183, (S)-2-Cyano-N-(6-methyl-5-((3-(2-(piperidin-3-ylamino)pyrimidin-4-yl)pyridin-2-yl)oxy)naphthalen-1-yl)acetamide]	260
Cc1ccc2c(NCc3csc(C(C)C)n3)cccc2c1Oc1ncccc1-c1ccnc(N[C@H]2CCCNC2)n1 [Example 256, (S)-4-(2-((5-(((2-Isopropylthiazol-4-yl)methyl)amino)-2-methylnaphthalen-1-yl)oxy)pyridin-3-yl)-N-(piperidin-3-yl)pyrimidin-2-amine]	210
Cc1ccc2c(N3CCC4(CC4)C3=O)cccc2c1Oc1ncccc1-c1ccnc(N[C@H]2CCCNC2)n1 [Example 297, (S)-5-(6-Methyl-5-((3-(2-(piperidin-3-ylamino)pyrimidin-4-yl)pyridin-2-yl)oxy)naphthalen-1-yl)-5-azaspiro[2.4]heptan-4-one]	173
CCn1ccc(Nc2cccc3c(Oc4ncccc4-c4ccnc(N[C@H]5CCCNC5)n4)c(C)ccc23)n1 [Example 272, (S)-4-(2-((5-((1-Ethyl-1H-pyrazol-3-yl)amino)-2-methylnaphthalen-1-yl)oxy)pyridin-3-yl)-N-(piperidin-3-yl)pyrimidin-2-amine]	463
Cc1ccc2c(NC(=O)Cc3cccc(F)c3)cccc2c1Oc1ncccc1-c1ccnc(N[C@H]2CCCNC2)n1 [Example 193, (S)-2-(3-Fluorophenyl)-N-(6-methyl-5-((3-(2-(piperidin-3-ylamino)pyrimidin-4-yl)pyridin-2-yl)oxy)naphthalen-1-yl)acetamide]	86
Cc1cc(NS(=O)(=O)Cc2ccccc2)c2ccccc2c1Oc1ncccc1-c1ccnc(N[C@H]2CCCNC2)n1 [Example 163, (S)—N-(3-Methyl-4-((3-(2-(piperidin-3-ylamino)pyrimidin-4-yl)pyridin-2-yl)oxy)naphthalen-1-yl)-1-phenylmethanesulfonamide]	47
Cc1ccc2c(NS(=O)(=O)Cc3ccccc3C#N)cccc2c1Oc1ncccc1-c1ccnc(N[C@H]2CCCNC2)n1 [Example 146, (S)-1-(2-Cyanophenyl)-N-(6-methyl-5-((3-(2-(piperidin-3-ylamino)pyrimidin-4-yl)pyridin-2-yl)oxy)naphthalen-1-yl)methanesulfonamide]	18
Cc1ccc2c(-n3nccc3C)cccc2c1Oc1ccccc1-c1ccnc(N[C@H]2CCCNC2)n1 [Example 246, (S)-4-(2-((2-Methyl-5-(5-methyl-1H-pyrazol-1-yl)naphthalen-1-yl)oxy)phenyl)-N-(piperidin-3-yl)pyrimidin-2-amine]	235
Cc1ccc2c(N3CC[C@@H](CF)C3=O)cccc2c1Oc1ncccc1-c1ccnc(N[C@H]2CCCNC2)n1 [Example 315, (R)-3-(Fluoromethyl)-1-(6-methyl-5-((3-(2-(((S)-piperidin-3-yl)amino)pyrimidin-4-yl)pyridin-2-yl)oxy)naphthalen-1-yl)pyrrolidin-2-one]	471
Cc1ccc2c(NCC(O)C(C)C)cccc2c1Oc1ncccc1-c1ccnc(N[C@H]2CCCNC2)n1 (mixture of isomers) [Example 200, 3-Methyl-1-((6-methyl-5-((3-(2-((S)-piperidin-3-ylamino)pyrimidin-4-yl)pyridin-2-yl)oxy)naphthalen-1-yl)amino)butan-2-ol]	77
CCCS(=O)(=O)Nc1cccc2c(Oc3ncccc3-c3ccnc(N[C@@H]4CNC[C@@H](F)C4)n3)c(C)ccc12 [Example 165, N-(5-((3-(2-(((3S,5S)-5-Fluoropiperidin-3-yl)amino)pyrimidin-4-yl)pyridin-2-yl)oxy)-6-methylnaphthalen-1-yl)propane-1-sulfonamide]	164
Cc1ccc2c(NS(=O)(=O)CCC(F)(F)F)c(F)ccc2c1Oc1ncccc1-c1ccnc(N[C@@H]2CNC[C@H](C)C2)n1 [Example 311, 3,3,3-Trifluoro-N-(2-fluoro-6-methyl-5-((3-(2-(((3S,5R)-5-methylpiperidin-3-yl)amino)pyrimidin-4-yl)pyridin-2-yl)oxy)naphthalen-1-yl)propane-1-sulfonamide]	6.16
CCCS(=O)(=O)Nc1cc(C)c(Oc2ncccc2-c2ccnc(N[C@H]3CCCNC3)n2)c2ccccc12 [Example 164, (S)—N-(3-Methyl-4-((3-(2-(piperidin-3-ylamino)pyrimidin-4-yl)pyridin-2-yl)oxy)naphthalen-1-yl)propane-1-sulfonamide]	147
Cc1ccc2c(N3C(=O)C4CCCC43)cccc2c1Oc1ncccc1-c1ccnc(N[C@H]2CCCNC2)n1 (single isomer, unassigned) [Example 248]	457
Cc1ccc2c(NS(=O)(=O)Cc3ccccc3)cccc2c1Oc1ncccc1-c1ccnc(N[C@@H]2CNC[C@H](F)C2)n1 [Example 148, N-(5-((3-(2-(((3S,5R)-5-Fluoropiperidin-3-yl)amino)pyrimidin-4-yl)pyridin-2-yl)oxy)-6-methylnaphthalen-1-yl)-1-phenylmethanesulfonamide]	211
CCCS(=O)(=O)Nc1c(F)ccc2c(Oc3ncccc3-c3ccnc(N[C@H]4CCCNC4)n3)c(C)ccc12 [Example 221, (S)—N-(2-Fluoro-6-methyl-5-((3-(2-(piperidin-3-ylamino)pyrimidin-4-yl)pyridin-2-yl)oxy)naphthalen-1-yl)propane-1-sulfonamide]	37

same assay, conditions: Table 2; read-out: XBP1s-luc 293 LUC (IC50)

SMILES	IC50 [nM]
Cc1ccc2c(NS(=O)(=O)Cc3cscn3)c(F)ccc2c1Oc1ncccc1-c1ccnc(N[C@H]2CCCNC2)n1 [Example 402, (S)—N-(2-Fluoro-6-methyl-5-((3-(2-(piperidin-3-ylamino)pyrimidin-4-yl)pyridin-2-yl)oxy)naphthalen-1-yl)-1-(thiazol-4-yl)methanesulfonamide hydrochloride]	51
Cc1ccc2c(NC[C@H](O)C(F)F)cccc2c1Oc1ncccc1-c1ccnc(N[C@H]2CCCNC2)n1 (single isomer, unassigned) [Example 475, hydrochloride]	19
Cc1c(F)c(NS(=O)(=O)CCC(F)(F)F)c2ccccc2c1Oc1ncccc1-c1ccnc(N[C@H]2CC[C@H](N)CC2)n1 [Example 483, N-(4-((3-(2-(((1r,4r)-4-Aminocyclohexyl)amino)pyrimidin-4-yl)pyridin-2-yl)oxy)-2-fluoro-3-methylnaphthalen-1-yl)-3,3,3-trifluoropropane-1-sulfonamide]	146
Cc1cc(CS(=O)(=O)Nc2c(F)ccc3c(Oc4ncccc4-c4ccnc(N[C@@H]5CNC[C@@H](F)C5)n4)c(C)ccc23)no1 (single isomer, unassigned) [Example 468, hydrochloride]	10
Cc1ccc2c(N[C@H]3CCCC[C@@H]3O)cccc2c1Oc1ncccc1-c1ccnc(N[C@H]2CCCNC2)n1 (single isomer, unassigned) [Example 447, hydrochloride]	146
Cc1ccc2c(NS(=O)(=O)Cc3ccccc3F)c(F)ccc2c1Oc1ncccc1-c1ccnc(N[C@@H]2CNC[C@H](C)C2)n1 [Example 477, N-(2-Fluoro-6-methyl-5-((3-(2-(((3S,5R)-5-methylpiperidin-3-yl)amino)pyrimidin-4-yl)pyridin-2-yl)oxy)naphthalen-1-yl)-1-(2-fluorophenyl)methanesulfonamide]	7
Cc1ccc2c(NS(=O)(=O)Cc3cccc(C#N)c3)c(F)ccc2c1Oc1ncccc1-c1ccnc(N[C@H]2CCCNC2)n1 [Example 425, (S)-1-(3-Cyanophenyl)-N-(2-fluoro-6-methyl-5-((3-(2-(piperidin-3-ylamino)pyrimidin-4-yl)pyridin-2-yl)oxy)naphthalen-1-yl)methanesulfonamide hydrochloride]	16
Cc1ccc2c(NS(=O)(=O)C[C@H]3CCCO3)c(F)ccc2c1Oc1ncccc1-c1ccnc(N[C@H]2CCCNC2)n1 (single isomer, unassigned) [Example 417, hydrochloride]	74
CCC(F)(F)CS(=O)(=O)Nc1c(F)ccc2c(Oc3ncccc3-c3ccnc(N[C@H]4CNC[C@H](F)C4)n3)c(C)ccc12 (single isomer, unassigned) [Example 495, hydrochloride]	469
Cc1ccc2c(N3CCC(O)C3)cccc2c1Oc1ncccc1-c1ccnc(N[C@H]2CCCNC2)n1 (single isomer, unassigned) [Example 408]	470
Cc1ccc2c(NS(=O)(=O)CCC(C)(F)F)c(F)ccc2c1Oc1ncccc1-c1ccnc(N[C@H]2CCCNC2)n1 [Example 442, (S)-3,3-Difluoro-N-(2-fluoro-6-methyl-5-((3-(2-(piperidin-3-ylamino)pyrimidin-4-yl)pyridin-2-yl)oxy)naphthalen-1-yl)butane-1-sulfonamide hydrochloride]	40
COCCS(=O)(=O)Nc1c(F)ccc2c(Oc3ncccc3-c3ccnc(N[C@@H]4CNC[C@H](C)C4)n3)c(C)ccc12 [Example 431, N-[2-Fluoro-6-methyl-5-[[3-[2-[[(3S,5R)-5-methyl-3-piperidyl]amino]pyrimidin-4-yl]-2-pyridyl]oxy]-1-naphthyl]-2-methoxy-ethanesulfonamide hydrochloride]	34

Reference: patent publication US10968203B2, “Pyrimidinyl-pyridyloxy-naphthyl compounds and methods of treating IRE1-related diseases and disorders” (Genentech, Inc., priority 2017, dated 2021)
